Our source for the EC50 values is patent US12723063B2, “GIPR-agonist compounds” (Eli Lilly and Company, priority 2019, dated 2026).

*1 amine or outer side, *2 acyl side, *3 side chain or, on linkers, in order; H or OH if unused. Where a SMILES comes first, the peptide text is derived from it. Side-chain parts run from the residue outwards. [ ]: non-standard residue; d: D form. The star is where a group is joined. C20 diacid = O=C(O)CCCCCCCCCCCCCCCCCCC(=O)*; γGlu = O=C(O)[C@H](CCC(=O)[*:2])N[*:1]; 4Pal = N[C@@H](Cc1ccncc1)C(=O)O; αMeL = CC(C)C[C@](C)(N)C(=O)O; Orn = NCCC[C@H](N)C(=O)O; AEEA = NCCOCCOCC(=O)O; Aib = CC(C)(N)C(=O)O

Holding throughout (experiment): cAMP functional assay (HTRF) in HEK293 cells in presence of 0.1% casein
Holding throughout (type): cell-based

In experiment [1] the target is T1, human GLP-1 receptor (GLP-1R) (Homo sapiens, UniProt P43220).
T1 construct: expressed in transfected cells; host or cells: HEK293
To be noted: HEK293 cells expressing human GLP-1R, geometric mean, read-out: hGLP1R cAMP Rel EC50 nM (SEM, n).

Experiment [2] concerns the target T2, human glucagon receptor (GcgR) (Homo sapiens, UniProt P47871).
T2 construct: expressed in transfected cells; host or cells: HEK293
To be noted: HEK293 cells expressing human GcgR, geometric mean, read-out: hGcgR cAMP Rel EC50 nM (SEM, n).

Experiment [3] deals with T3, human glucose-dependent insulinotropic peptide receptor (GIPR) (Homo sapiens, UniProt P48546).
T3 construct: expressed in transfected cells; host or cells: HEK293
T3 sequence (P48546 22-466): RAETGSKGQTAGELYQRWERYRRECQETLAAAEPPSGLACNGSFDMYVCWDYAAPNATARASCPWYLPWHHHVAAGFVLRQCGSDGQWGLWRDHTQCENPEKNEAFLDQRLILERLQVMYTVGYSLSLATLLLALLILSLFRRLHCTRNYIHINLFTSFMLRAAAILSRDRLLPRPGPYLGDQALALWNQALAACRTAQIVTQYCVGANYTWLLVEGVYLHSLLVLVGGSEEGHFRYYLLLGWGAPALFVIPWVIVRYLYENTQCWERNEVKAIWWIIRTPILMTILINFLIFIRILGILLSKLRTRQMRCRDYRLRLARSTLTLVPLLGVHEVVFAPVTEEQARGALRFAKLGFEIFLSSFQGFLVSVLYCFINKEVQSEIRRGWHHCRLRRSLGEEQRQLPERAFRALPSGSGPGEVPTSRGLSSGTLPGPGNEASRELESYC
To be noted: HEK293 cells expressing human GIPR, geometric mean, read-out: hGIPR cAMP Rel EC50 nM (SEM, n).

A word on the EC50: it is the concentration at which the effect is half-maximal.

T2 sequence (P47871 26-477): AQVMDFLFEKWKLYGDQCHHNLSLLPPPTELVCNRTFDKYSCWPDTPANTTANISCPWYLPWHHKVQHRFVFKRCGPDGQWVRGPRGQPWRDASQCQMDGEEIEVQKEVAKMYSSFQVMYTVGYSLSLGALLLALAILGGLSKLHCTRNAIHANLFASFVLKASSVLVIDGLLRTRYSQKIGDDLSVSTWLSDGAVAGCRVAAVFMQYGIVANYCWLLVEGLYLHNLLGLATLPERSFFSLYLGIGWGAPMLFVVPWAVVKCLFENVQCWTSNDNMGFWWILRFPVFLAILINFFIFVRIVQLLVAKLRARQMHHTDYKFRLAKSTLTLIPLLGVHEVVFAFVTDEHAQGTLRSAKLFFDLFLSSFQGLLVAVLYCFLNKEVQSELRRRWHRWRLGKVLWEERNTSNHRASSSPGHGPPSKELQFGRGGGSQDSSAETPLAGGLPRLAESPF
T1 sequence (P43220 24-463): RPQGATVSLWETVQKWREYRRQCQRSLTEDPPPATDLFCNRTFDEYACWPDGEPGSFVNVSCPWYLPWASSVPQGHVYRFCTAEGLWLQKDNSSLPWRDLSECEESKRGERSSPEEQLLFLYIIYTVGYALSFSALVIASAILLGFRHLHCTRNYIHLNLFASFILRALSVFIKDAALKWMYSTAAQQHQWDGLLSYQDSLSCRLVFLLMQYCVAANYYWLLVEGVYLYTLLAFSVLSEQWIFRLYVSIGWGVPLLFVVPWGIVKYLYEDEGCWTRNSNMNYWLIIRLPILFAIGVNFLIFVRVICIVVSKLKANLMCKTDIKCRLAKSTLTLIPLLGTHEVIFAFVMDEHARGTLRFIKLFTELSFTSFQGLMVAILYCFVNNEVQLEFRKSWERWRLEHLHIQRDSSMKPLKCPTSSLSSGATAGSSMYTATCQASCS

Turning to `CC[C@H](C)[C@H](NC(=O)[C@H](Cc1ccccc1)NC(=O)[C@@H](NC(=O)CNC(=O)[C@H](CCC(=O)O)NC(=O)C(C)(C)NC(=O)[C@@H](N)Cc1ccc(O)cc1)[C@@H](C)O)C(=O)N[C@@H](CO)C(=O)N[C@@H](CC(=O)O)C(=O)N[C@@H](Cc1ccc(O)cc1)C(=O)N[C@@H](CO)C(=O)N[C@H](C(=O)N[C@@](C)(CC(C)C)C(=O)N[C@@H](CC(C)C)C(=O)N[C@@H](CC(=O)O)C(=O)N[C@@H](CCC(=O)O)C(=O)N[C@@H](CCCCNC(=O)COCCOCCNC(=O)COCCOCCNC(=O)CC[C@H](NC(=O)CCCCCCCCCCCCCCCCCCC(=O)O)C(=O)O)C(=O)N[C@@H](Cc1c[nH]cn1)C(=O)N[C@@H](CCC(N)=O)C(=O)NC(C)(C)C(=O)N[C@@H](CC(=O)O)C(=O)N[C@@H](Cc1ccccc1)C(=O)N[C@H](C(=O)N[C@@H](CCC(=O)O)C(=O)N[C@@H](Cc1ccncc1)C(=O)N[C@@H](CC(C)C)C(=O)N[C@@H](CC(C)C)C(=O)N[C@@H](C)C(=O)N[C@@H](CCC(N)=O)C(=O)NCC(=O)N1CCC[C@H]1C(=O)N[C@@H](CO)C(=O)N[C@@H](CO)C(=O)NCC(=O)N[C@@H](C)C(=O)N1CCC[C@H]1C(=O)N1CCC[C@H]1C(=O)N1CCC[C@H]1C(=O)N[C@@H](CO)C(N)=O)C(C)C)[C@@H](C)CC` [Example 84] (H-Y[Aib]EGTFISDYSI[αMeL]LDEK([AEEA-AEEA-γGlu-C20 diacid])HQ[Aib]DFVE[4Pal]LLAQGPSSGAPPPS-NH2), the EC50 in experiment [1] was above 5000 nM; in experiment [2], above 5000 nM; in experiment [3], 0.034 nM.
For `CC[C@H](C)[C@H](NC(=O)[C@H](CO)NC(=O)[C@H](Cc1ccc(O)cc1)NC(=O)[C@H](CC(=O)O)NC(=O)[C@H](CO)NC(=O)[C@@H](NC(=O)[C@H](Cc1ccccc1)NC(=O)[C@@H](NC(=O)CNC(=O)[C@H](CCC(=O)O)NC(=O)[C@@H](C)NC(=O)[C@@H](N)Cc1ccc(O)cc1)[C@@H](C)O)[C@@H](C)CC)C(=O)N[C@@H](CC(C)C)C(=O)N[C@@H](CC(C)C)C(=O)N[C@@H](CC(=O)O)C(=O)N[C@@H](CCCCN)C(=O)N[C@@H](CCCCNC(=O)COCCOCCNC(=O)COCCOCCNC(=O)CC[C@H](NC(=O)CCCCCCCCCCCCCCCCCCC(=O)O)C(=O)O)C(=O)N[C@@H](C)C(=O)N[C@@H](CCC(N)=O)C(=O)N[C@@H](CCC(N)=O)C(=O)N[C@@H](CC(=O)O)C(=O)N[C@@H](Cc1ccccc1)C(=O)N[C@H](C(=O)N[C@@H](CC(N)=O)C(=O)N[C@@H](Cc1c[nH]c2ccccc12)C(=O)N[C@@H](CC(C)C)C(=O)N[C@@H](CC(C)C)C(=O)N[C@@H](C)C(=O)NCC(=O)NCC(=O)N1CCC[C@H]1C(=O)N[C@@H](CO)C(=O)N[C@@H](CO)C(=O)NCC(=O)N[C@@H](C)C(=O)N1CCC[C@H]1C(=O)N1CCC[C@H]1C(=O)N1CCC[C@H]1C(=O)N[C@@H](CO)C(N)=O)C(C)C` [Example 12] (H-Y[dA]EGTFISDYSILLDKK([AEEA-AEEA-γGlu-C20 diacid])AQQDFVNWLLAGGPSSGAPPPS-NH2), the EC50 in experiment [1] was above 100 nM; in experiment [2] it was above 5000 nM; in experiment [3] it was 0.0911 nM.
In the case of `CC[C@H](C)[C@H](NC(=O)[C@H](CCCN)NC(=O)[C@H](CC(=O)O)NC(=O)[C@H](CC(C)C)NC(=O)[C@](C)(CC(C)C)NC(=O)[C@@H](NC(=O)[C@H](CO)NC(=O)[C@H](Cc1ccc(O)cc1)NC(=O)[C@H](CC(=O)O)NC(=O)[C@H](CO)NC(=O)[C@@H](NC(=O)[C@H](Cc1ccccc1)NC(=O)[C@@H](NC(=O)CNC(=O)[C@H](CCC(=O)O)NC(=O)C(C)(C)NC(=O)[C@@H](N)Cc1ccc(O)cc1)[C@@H](C)O)[C@@H](C)CC)[C@@H](C)CC)C(=O)N[C@@H](Cc1c[nH]cn1)C(=O)N[C@@H](CCC(N)=O)C(=O)NC(C)(C)C(=O)N[C@@H](CCC(=O)O)C(=O)N[C@@H](Cc1ccccc1)C(=O)N[C@H](C(=O)N[C@@H](CCC(=O)O)C(=O)N[C@@H](Cc1ccncc1)C(=O)N[C@@H](CCCCNC(=O)COCCOCCNC(=O)COCCOCCNC(=O)CC[C@H](NC(=O)CCCCCCCCCCCCCCCCCCC(=O)O)C(=O)O)C(=O)N[C@@H](CC(C)C)C(=O)N[C@@H](CCC(=O)O)C(=O)N[C@@H](C)C(=O)NCC(=O)N1CCC[C@H]1C(=O)N[C@@H](CO)C(=O)N[C@@H](CO)C(=O)NCC(=O)N[C@@H](C)C(=O)N1CCC[C@H]1C(=O)N1CCC[C@H]1C(=O)N1CCC[C@H]1C(=O)N[C@@H](CO)C(N)=O)C(C)C` [Example 122] (H-Y[Aib]EGTFISDYSI[αMeL]LD[Orn]IHQ[Aib]EFVE[4Pal]K([AEEA-AEEA-γGlu-C20 diacid])LEAGPSSGAPPPS-NH2), the EC50 was above 5000 nM in experiment [1], above 5000 nM in experiment [2] and 0.01 nM in experiment [3].
Take `CC[C@H](C)[C@H](NC(=O)[C@H](CCCN)NC(=O)[C@H](CC(=O)O)NC(=O)[C@H](CC(C)C)NC(=O)[C@](C)(CC(C)C)NC(=O)[C@@H](NC(=O)[C@H](CO)NC(=O)[C@H](Cc1ccc(O)cc1)NC(=O)[C@H](CC(=O)O)NC(=O)[C@H](CO)NC(=O)[C@@H](NC(=O)[C@H](Cc1ccccc1)NC(=O)[C@@H](NC(=O)CNC(=O)[C@H](CCC(=O)O)NC(=O)C(C)(C)NC(=O)[C@@H](N)Cc1ccc(O)cc1)[C@@H](C)O)[C@@H](C)CC)[C@@H](C)CC)C(=O)N[C@@H](Cc1c[nH]cn1)C(=O)N[C@@H](CCC(N)=O)C(=O)NC(C)(C)C(=O)N[C@@H](CCC(=O)O)C(=O)N[C@@H](Cc1ccccc1)C(=O)N[C@H](C(=O)N[C@@H](CCC(=O)O)C(=O)N[C@@H](Cc1ccc(O)cc1)C(=O)N[C@@H](CCCCNC(=O)COCCOCCNC(=O)COCCOCCNC(=O)CC[C@H](NC(=O)CCCCCCCCCCCCCCCCCCC(=O)O)C(=O)O)C(=O)N[C@@H](CC(C)C)C(=O)N[C@@H](CCC(=O)O)C(=O)N[C@H](C(=O)NCC(=O)N1CCC[C@H]1C(=O)N[C@@H](CO)C(=O)N[C@@H](CO)C(=O)NCC(=O)N[C@@H](C)C(=O)N1CCC[C@H]1C(=O)N1CCC[C@H]1C(=O)N1CCC[C@H]1C(=O)N[C@@H](CO)C(N)=O)[C@@H](C)O)C(C)C` [Example 105] (H-Y[Aib]EGTFISDYSI[αMeL]LD[Orn]IHQ[Aib]EFVEYK([AEEA-AEEA-γGlu-C20 diacid])LETGPSSGAPPPS-NH2): the EC50 in experiment [1] is above 5000 nM; in experiment [2], above 5000 nM; in experiment [3], 0.0179 nM.
For the compound `CC[C@H](C)[C@H](NC(=O)[C@H](Cc1ccccc1)NC(=O)[C@@H](NC(=O)CNC(=O)[C@H](CCC(=O)O)NC(=O)C(C)(C)NC(=O)[C@@H](N)Cc1ccc(O)cc1)[C@@H](C)O)C(=O)N[C@@H](CO)C(=O)N[C@@H](CC(=O)O)C(=O)N[C@@H](Cc1ccc(O)cc1)C(=O)N[C@@H](CO)C(=O)N[C@H](C(=O)N[C@@](C)(CC(C)C)C(=O)N[C@@H](CC(C)C)C(=O)N[C@@H](CC(=O)O)C(=O)N[C@@H](CCCCN)C(=O)N[C@@H](CCCCNC(=O)COCCOCCNC(=O)COCCOCCNC(=O)CC[C@H](NC(=O)CCCCCCCCCCCCCCCCCCC(=O)O)C(=O)O)C(=O)N[C@@H](Cc1c[nH]cn1)C(=O)N[C@@H](CCC(N)=O)C(=O)NC(C)(C)C(=O)N[C@@H](CC(=O)O)C(=O)N[C@@H](Cc1ccccc1)C(=O)N[C@H](C(=O)N[C@@H](CCC(=O)O)C(=O)N[C@@H](Cc1ccncc1)C(=O)N[C@@H](CC(C)C)C(=O)N[C@@H](CC(C)C)C(=O)N[C@@H](C)C(=O)N[C@@H](CCC(N)=O)C(=O)NCC(=O)N1CCC[C@H]1C(=O)N[C@@H](CO)C(=O)N[C@@H](CO)C(=O)NCC(=O)N[C@@H](C)C(=O)N1CCC[C@H]1C(=O)N1CCC[C@H]1C(=O)N1CCC[C@H]1C(=O)N[C@@H](CO)C(N)=O)C(C)C)[C@@H](C)CC` [Example 79] (H-Y[Aib]EGTFISDYSI[αMeL]LDKK([AEEA-AEEA-γGlu-C20 diacid])HQ[Aib]DFVE[4Pal]LLAQGPSSGAPPPS-NH2), the results for the EC50 in experiment [1], in experiment [2] and in experiment [3] were above 5000 nM, above 5000 nM and 0.0316 nM, respectively.
In the case of `CC[C@H](C)[C@H](NC(=O)[C@H](CCCN)NC(=O)[C@H](CC(=O)O)NC(=O)[C@H](CC(C)C)NC(=O)[C@](C)(CC(C)C)NC(=O)[C@@H](NC(=O)[C@H](CO)NC(=O)[C@H](Cc1ccc(O)cc1)NC(=O)[C@H](CC(=O)O)NC(=O)[C@H](CO)NC(=O)[C@@H](NC(=O)[C@H](Cc1ccccc1)NC(=O)[C@@H](NC(=O)CNC(=O)[C@H](CCC(=O)O)NC(=O)C(C)(C)NC(=O)[C@@H](N)Cc1ccc(O)cc1)[C@@H](C)O)[C@@H](C)CC)[C@@H](C)CC)C(=O)N[C@@H](Cc1c[nH]cn1)C(=O)N[C@@H](CCC(N)=O)C(=O)NC(C)(C)C(=O)N[C@@H](CCC(=O)O)C(=O)N[C@@H](Cc1ccccc1)C(=O)N[C@H](C(=O)N[C@@H](CCC(=O)O)C(=O)N[C@@H](Cc1ccc(O)cc1)C(=O)N[C@@H](CCCCNC(=O)COCCOCCNC(=O)COCCOCCNC(=O)CC[C@H](NC(=O)CCCCCCCCCCCCCCCCCCC(=O)O)C(=O)O)C(=O)N[C@@H](CC(C)C)C(=O)N[C@@H](CCC(=O)O)C(=O)N[C@@H](CCC(N)=O)C(=O)NCC(=O)N1CCC[C@H]1C(=O)N[C@@H](CO)C(=O)N[C@@H](CO)C(=O)NCC(=O)N[C@@H](C)C(=O)N1CCC[C@H]1C(=O)N1CCC[C@H]1C(=O)N1CCC[C@H]1C(=O)N[C@@H](CO)C(N)=O)C(C)C` [Example 106] (H-Y[Aib]EGTFISDYSI[αMeL]LD[Orn]IHQ[Aib]EFVEYK([AEEA-AEEA-γGlu-C20 diacid])LEQGPSSGAPPPS-NH2), the EC50 in experiment [1] was above 5000 nM; in experiment [2], above 5000 nM; in experiment [3], 0.014 nM.
